In ChEMBL document CHEMBL5214967, “Natural Product-Inspired Targeted Protein Degraders: Advances and Perspectives” (J Med Chem, 2022):

Columns and labels:
[1] = target: T1, 3-hydroxy-3-methylglutaryl-coenzyme A reductase (Homo sapiens, UniProt P04035); experiment: Inhibition of HMGCR (unknown origin)
T1 sequence (P04035 whole entry): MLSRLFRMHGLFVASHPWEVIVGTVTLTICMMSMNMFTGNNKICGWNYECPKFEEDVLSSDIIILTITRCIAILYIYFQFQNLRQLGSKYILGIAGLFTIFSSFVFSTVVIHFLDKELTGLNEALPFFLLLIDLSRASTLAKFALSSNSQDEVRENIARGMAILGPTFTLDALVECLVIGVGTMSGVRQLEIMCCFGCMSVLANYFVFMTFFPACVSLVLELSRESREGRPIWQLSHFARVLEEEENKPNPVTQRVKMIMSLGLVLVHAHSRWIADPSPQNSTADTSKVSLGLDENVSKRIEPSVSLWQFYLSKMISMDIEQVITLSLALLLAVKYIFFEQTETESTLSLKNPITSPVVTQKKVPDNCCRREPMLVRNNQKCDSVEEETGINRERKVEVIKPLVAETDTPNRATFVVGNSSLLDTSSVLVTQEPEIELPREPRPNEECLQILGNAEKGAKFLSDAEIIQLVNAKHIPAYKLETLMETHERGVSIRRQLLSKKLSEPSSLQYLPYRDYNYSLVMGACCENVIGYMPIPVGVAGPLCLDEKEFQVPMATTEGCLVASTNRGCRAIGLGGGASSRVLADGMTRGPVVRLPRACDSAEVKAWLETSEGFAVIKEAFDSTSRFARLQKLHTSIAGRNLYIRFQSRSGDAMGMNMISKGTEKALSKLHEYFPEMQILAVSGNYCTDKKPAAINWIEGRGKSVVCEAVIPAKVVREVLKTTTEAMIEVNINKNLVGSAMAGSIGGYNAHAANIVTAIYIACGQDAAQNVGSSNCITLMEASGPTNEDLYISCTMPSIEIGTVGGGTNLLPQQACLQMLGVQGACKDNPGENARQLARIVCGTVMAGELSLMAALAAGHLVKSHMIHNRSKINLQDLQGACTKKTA

[2] = target: T2, von Hippel-Lindau disease tumor suppressor/3-hydroxy-3-methylglutaryl-coenzyme A reductase (Homo sapiens, UniProt P04035+P40337); experiment: PROTAC activity at VHL/recombinant HMGCR in human HepG2 cells assessed as degradation of HMGCR measured at 0.1 uM after 16 hrs relative to control; type: cell-based
Target sequence in this assay (P40337 whole entry, looked up, one chain of several): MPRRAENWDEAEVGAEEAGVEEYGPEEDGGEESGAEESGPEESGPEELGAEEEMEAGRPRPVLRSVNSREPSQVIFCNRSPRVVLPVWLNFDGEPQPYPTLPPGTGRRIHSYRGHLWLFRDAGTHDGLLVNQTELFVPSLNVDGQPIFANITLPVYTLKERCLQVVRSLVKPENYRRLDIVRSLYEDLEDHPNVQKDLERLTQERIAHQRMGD

[3] = target: T2, von Hippel-Lindau disease tumor suppressor/3-hydroxy-3-methylglutaryl-coenzyme A reductase; experiment: PROTAC activity at VHL/recombinant HMGCR in human Insig-depletion HepG2 cells assessed as degradation of HMGCR measured after 16 hrs; type: cell-based
Target sequence in this assay (P40337 whole entry, one chain of several): as the sequence (P40337 whole entry, looked up, one chain of several) above

[4] = target: T2, von Hippel-Lindau disease tumor suppressor/3-hydroxy-3-methylglutaryl-coenzyme A reductase; experiment: PROTAC activity at VHL/recombinant HMGCR in human Insig-depletion HepG2 cells assessed as degradation of HMGCR measured at 1 uM after 16 hrs relative to control; type: cell-based
Target sequence in this assay (P40337 whole entry, looked up, one chain of several): as above

[5] = target: T1, 3-hydroxy-3-methylglutaryl-coenzyme A reductase; experiment: Degradation of HMGCR (unknown origin) expressed in CHO-7 cells; type: cell-based
[6] = target: von Hippel-Lindau disease tumor suppressor/Estrogen receptor (Homo sapiens, UniProt P03372+P40337); experiment: PROTAC activity at VHL/ERalpha in human MCF7 cells assessed as degradation of ERalpha; type: cell-based
[7] = target: von Hippel-Lindau disease tumor suppressor/G-protein coupled estrogen receptor 1 (Homo sapiens, UniProt Q99527+P40337); experiment: PROTAC activity at VHL/GPER (unknown origin) assessed as degradation of GPER; type: protein assay
MCF7 [8] = experiment: Cytotoxicity against human MCF7 cells by inducing cell cycle arrest incubated for 30 mins measured by FacScallibur flow cytometric analysis; type: functional, cell-based; conditions: MCF7, 0.5 h
SK-BR-3 = experiment: Cytotoxicity against human SK-BR-3 cells by inducing cell cycle arrest incubated for 30 mins measured by FacScallibur flow cytometric analysis; type: functional, cell-based; conditions: SK-BR-3, 0.5 h
[9] = target: T2, von Hippel-Lindau disease tumor suppressor/3-hydroxy-3-methylglutaryl-coenzyme A reductase; experiment: PROTAC activity at VHL/HMGCR in human HepG2 cells assessed as degradation of HMGCR measured at 1 uM after 16 hrs relative to control; type: cell-based
Target sequence in this assay (P40337 whole entry, looked up, one chain of several): as above

[10] = target: E3 ubiquitin-protein ligase RNF114 (Homo sapiens, UniProt Q9Y508); experiment: Inhibition of RNF114 (unknown origin)
[11] = target: E3 ubiquitin-protein ligase RNF114/Bromodomain-containing protein 4 (Homo sapiens, UniProt O60885+Q9Y508); experiment: PROTAC activity at RNF114/BRD4 (unknown origin) assessed as degradation of BRD4 incubated for 30 mins SDS-PAGE based fluorescence analysis
A549 [12] = experiment: Cytotoxicity against human A549 cells incubated for 24 hrs by MTT assay; type: functional, cell-based; conditions: A549, 24 h
Huh-7 [13] = experiment: Cytotoxicity against human Huh-7 cells incubated for 24 hrs by MTT assay; type: functional, cell-based; conditions: Huh-7, 24 h
HepG2 [14] = experiment: Cytotoxicity against human HepG2 cells incubated for 24 hrs by MTT assay; type: functional, cell-based; conditions: HepG2, 24 h
[15] = target: Protein cereblon/E3 ubiquitin-protein ligase Mdm2 (Homo sapiens) (UniProt Q00987+Q96SW2); experiment: PROTAC activity at CRBN/MDM2 (unknown origin) assessed as degradation of MDM2 relative to control; type: protein assay
A549 [16] = experiment: Cytotoxicity against human A549 cells measured after 24 hrs by MTT assay; type: functional, cell-based; conditions: A549, 24 h
Huh-7 [17] = experiment: Cytotoxicity against human Huh-7 cells measured after 24 hrs by MTT assay; type: functional, cell-based; conditions: Huh-7, 24 h
HepG2 [18] = experiment: Cytotoxicity against human HepG2 cells measured after 24 hrs by MTT assay; type: functional, cell-based; conditions: HepG2, 24 h
[19] = Antiviral activity against IAV WSN/33 infected in luciferase tagged HEK293T cells assessed as suppression of de novo viral replication incubated for 24 hr; type: functional, cell-based; conditions: Influenza A virus, WSN/33, HEK-293T
[20] = target: Cyclin-dependent kinase 9 (Homo sapiens, UniProt P50750); experiment: Inhibition of CDK9 (unknown origin) incubated for 1 hr by fluorescent polarisation based assay
MCF7 [21] = experiment: cells; conditions: Homo sapiens, MCF7, 72 h
Description: Antiproliferative activity against human MCF7 cells incubated for 72 hrs by MTT assay

HeLa = experiment: Cytotoxicity against human HeLa cells incubated for 72 hrs by CCK-8 assay; type: functional, cell-based
HFF-1 = experiment: Cytotoxicity against human HFF-1 cells incubated for 72 hrs by CCK-8 assay; type: functional, cell-based; conditions: HFF-1, 72 h
[22] = Degradation of ER in human MCF7 cells; type: cell-based

Chain of von Hippel-Lindau disease tumor suppressor/Estrogen receptor (P03372 whole entry): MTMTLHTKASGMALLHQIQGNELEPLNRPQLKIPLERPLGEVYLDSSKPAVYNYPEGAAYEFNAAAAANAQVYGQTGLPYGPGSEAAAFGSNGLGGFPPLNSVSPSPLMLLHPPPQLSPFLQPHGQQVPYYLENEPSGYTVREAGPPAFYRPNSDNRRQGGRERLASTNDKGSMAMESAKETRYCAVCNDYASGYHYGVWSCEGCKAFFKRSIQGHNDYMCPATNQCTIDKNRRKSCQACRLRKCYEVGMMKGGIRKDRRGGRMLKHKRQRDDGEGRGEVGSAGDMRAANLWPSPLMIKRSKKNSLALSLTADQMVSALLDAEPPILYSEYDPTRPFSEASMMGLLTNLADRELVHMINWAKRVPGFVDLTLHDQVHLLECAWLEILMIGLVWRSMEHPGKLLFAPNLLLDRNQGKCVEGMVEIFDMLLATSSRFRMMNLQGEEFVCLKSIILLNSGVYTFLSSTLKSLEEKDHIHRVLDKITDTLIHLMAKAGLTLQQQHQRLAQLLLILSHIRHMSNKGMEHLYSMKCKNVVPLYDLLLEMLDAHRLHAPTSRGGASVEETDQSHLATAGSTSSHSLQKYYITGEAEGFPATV
Chain of von Hippel-Lindau disease tumor suppressor/Estrogen receptor (P40337 whole entry): as the sequence (P40337 whole entry, looked up, one chain of several) above
Chain of von Hippel-Lindau disease tumor suppressor/G-protein coupled estrogen receptor 1 (Q99527 whole entry): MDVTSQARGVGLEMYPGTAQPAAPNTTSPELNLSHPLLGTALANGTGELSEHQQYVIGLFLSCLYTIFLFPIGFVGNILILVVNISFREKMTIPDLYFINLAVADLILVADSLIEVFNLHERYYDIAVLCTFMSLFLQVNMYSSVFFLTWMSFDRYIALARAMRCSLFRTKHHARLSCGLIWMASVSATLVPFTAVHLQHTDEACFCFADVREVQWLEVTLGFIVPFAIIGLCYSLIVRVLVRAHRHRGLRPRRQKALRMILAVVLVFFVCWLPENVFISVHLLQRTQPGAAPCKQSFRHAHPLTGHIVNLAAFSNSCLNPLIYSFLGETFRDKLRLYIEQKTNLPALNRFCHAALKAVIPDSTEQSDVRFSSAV
Chain of von Hippel-Lindau disease tumor suppressor/G-protein coupled estrogen receptor 1 (P40337 whole entry): as the sequence (P40337 whole entry, looked up, one chain of several) above
Chain of E3 ubiquitin-protein ligase RNF114/Bromodomain-containing protein 4 (Q9Y508 whole entry, looked up, other chains not shown): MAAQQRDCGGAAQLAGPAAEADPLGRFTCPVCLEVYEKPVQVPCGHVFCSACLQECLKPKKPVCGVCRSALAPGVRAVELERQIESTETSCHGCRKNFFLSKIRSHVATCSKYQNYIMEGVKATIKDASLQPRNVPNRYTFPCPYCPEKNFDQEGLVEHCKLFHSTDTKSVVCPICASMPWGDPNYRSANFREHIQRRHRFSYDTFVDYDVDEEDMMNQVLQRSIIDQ
Chain of E3 ubiquitin-protein ligase RNF114 (Q9Y508 whole entry): as the sequence (Q9Y508 whole entry, looked up, other chains not shown) above
Chain of Cyclin-dependent kinase 9 (P50750 whole entry): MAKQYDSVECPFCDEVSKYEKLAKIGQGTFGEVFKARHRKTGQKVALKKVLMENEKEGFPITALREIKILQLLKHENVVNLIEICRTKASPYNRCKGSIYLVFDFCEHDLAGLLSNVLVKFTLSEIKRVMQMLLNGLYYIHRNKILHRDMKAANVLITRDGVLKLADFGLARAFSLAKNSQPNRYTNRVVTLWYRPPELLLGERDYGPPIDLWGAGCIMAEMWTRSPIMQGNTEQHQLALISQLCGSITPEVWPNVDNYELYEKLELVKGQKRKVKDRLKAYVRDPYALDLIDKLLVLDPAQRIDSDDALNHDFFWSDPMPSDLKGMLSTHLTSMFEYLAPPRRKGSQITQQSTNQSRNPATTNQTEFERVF
Chain of Protein cereblon/E3 ubiquitin-protein ligase Mdm2 (Homo sapiens) (Q00987 whole entry, looked up): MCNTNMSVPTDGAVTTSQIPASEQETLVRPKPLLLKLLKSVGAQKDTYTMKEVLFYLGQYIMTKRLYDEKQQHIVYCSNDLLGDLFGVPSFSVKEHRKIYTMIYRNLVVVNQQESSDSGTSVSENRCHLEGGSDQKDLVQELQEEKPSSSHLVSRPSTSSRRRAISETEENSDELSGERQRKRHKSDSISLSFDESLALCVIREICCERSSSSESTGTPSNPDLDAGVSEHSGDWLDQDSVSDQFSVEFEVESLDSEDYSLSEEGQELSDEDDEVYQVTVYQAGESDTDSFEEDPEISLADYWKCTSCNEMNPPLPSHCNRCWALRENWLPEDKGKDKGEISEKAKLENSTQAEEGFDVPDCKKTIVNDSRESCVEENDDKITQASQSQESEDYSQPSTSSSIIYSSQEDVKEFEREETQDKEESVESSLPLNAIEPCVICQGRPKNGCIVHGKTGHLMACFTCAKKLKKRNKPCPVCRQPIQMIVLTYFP
Chain of Protein cereblon/E3 ubiquitin-protein ligase Mdm2 (Homo sapiens) (Q96SW2 whole entry, looked up): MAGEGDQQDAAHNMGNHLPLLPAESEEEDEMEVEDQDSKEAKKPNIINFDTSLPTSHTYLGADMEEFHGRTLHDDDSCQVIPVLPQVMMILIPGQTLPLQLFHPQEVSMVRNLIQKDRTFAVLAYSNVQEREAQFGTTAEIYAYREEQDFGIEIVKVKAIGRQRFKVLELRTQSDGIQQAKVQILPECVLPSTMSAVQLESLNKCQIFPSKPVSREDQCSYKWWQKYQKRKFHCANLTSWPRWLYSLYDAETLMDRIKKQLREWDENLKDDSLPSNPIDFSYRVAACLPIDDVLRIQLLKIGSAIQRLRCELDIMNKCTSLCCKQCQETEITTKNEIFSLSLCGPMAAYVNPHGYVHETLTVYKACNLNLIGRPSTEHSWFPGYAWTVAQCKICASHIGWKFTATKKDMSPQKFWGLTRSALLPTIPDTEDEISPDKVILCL

Cc1ncsc1-c1ccc(CNC(=O)[C@@H]2C[C@@H](O)CN2C(=O)[C@H](NC(=O)CCCCCCCCCCNC(=O)OC2C[C@@H](C)C=C3C=C[C@H](C)[C@H](CC[C@@H](O)C[C@@H](O)CC=O)[C@H]32)C(C)(C)C)cc1 (stereo partly specified)
IC50 [1]: 250 nM | Emax [2]: 56% | DC50 [3]: 120 nM | Emax [4]: 76%

C=CCC(O)(CC=C)CCC[C@@H](C)[C@H]1CC[C@H]2[C@@H]3[C@@H](O)C=C4C(C)(C)[C@@H](O)CC[C@]4(C)[C@H]3CC[C@]12C
DC50 [5]: 390 nM

Cc1ncsc1-c1ccc(CNC(=O)[C@@H]2C[C@@H](O)CN2C(=O)[C@@H](NC(=O)COCCOCCOCCOCC(=O)O[C@H]2CC[C@H]3[C@@H]4CCc5cc(O)ccc5[C@H]4CC[C@]23C)C(C)(C)C)cc1
DC50 [6]: 10000 nM | DC50 [7]: 100000 nM | IC50 (MCF7 [8]): 9000 nM | IC50 (SK-BR-3): 10900 nM

Cc1ncsc1-c1ccc(CNC(=O)[C@@H]2C[C@@H](O)CN2C(=O)[C@H](NC(=O)CCCCCCCCCCNC(=O)OC2C[C@@H](C)C=C3C=C[C@H](C)[C@H](CC[C@@H]4C[C@@H](O)CC(=O)O4)[C@H]32)C(C)(C)C)cc1 (stereo partly specified)
Emax [9]: 56% | IC50 [1]: 1300 nM

COC(=O)C[C@H]1[C@]2(C)C3=C(C)C(c4ccoc4-c4ccc(C(=O)NCCCNC(=O)C[C@@H]5N=C(c6ccc(Cl)cc6)c6c(sc(C)c6C)-n6c(C)nnc65)cc4)C[C@H]3C[C@@H]2[C@@H]2OC(=O)[C@]3(C)C=CC(=O)[C@@]1(C)[C@@H]23 (stereo partly specified)
IC50 [10]: 240 nM | DC50 [11]: 10 nM

C[C@H]1[C@H](C)CCC2(C(=O)NCCOCCOCCOCCNc3cccc4c3C(=O)N(C3CCC(=O)NC3=O)C4=O)CC[C@]3(C)C(=CC[C@@H]4[C@@]5(C)CCC(O)C(C)(C)[C@@H]5CC[C@]43C)[C@H]12 (stereo partly specified)
IC50 (A549 [12]): 230 nM | IC50 (Huh-7 [13]): 230 nM | IC50 (HepG2 [14]): 230 nM | Emax [15]: 75% | IC50 (A549 [16]): 230 nM | IC50 (Huh-7 [17]): 390 nM | IC50 (HepG2 [18]): 380 nM

C/C(=C\CC/C(C)=C/C[C@]1(O)C(=O)c2c(O)cc(C)c3c(O)c(C)c(O)c(c23)C1=O)CC/C=C(\CO)CC[C@@H](O)C(C)(C)O
IC50 [19]: 6600 nM

O=C1CCC(N2C(=O)c3cccc(NC(=O)CCCCCCCn4cc(COc5c(O)cc(O)c6c(=O)cc(-c7ccccc7)oc56)nn4)c3C2=O)C(=O)N1 (stereo unspecified)
IC50 [20]: 523 nM | IC50 (MCF7 [21]): 17 nM

Cc1ncsc1-c1ccc([C@H](C)NC(=O)[C@@H]2CC(OC(=O)CCCCn3cc(CNC(=O)CC[C@H](NC(=O)c4ccc(NCc5cnc6[nH]c(N)nc(=O)c6n5)cc4)C(=O)O)nn3)CN2C(=O)[C@@H](NC(=O)COCCCOCCNC(=O)C[C@@H]2N=C(c3ccc(Cl)cc3)c3c(sc(C)c3C)-n3c(C)nnc32)C(C)(C)C)cc1 (stereo partly specified)
IC50 (HeLa): 246 nM | IC50 (HFF-1): > 10000 nM

CC1=CC(=O)[C@H]2/C(C=O)=C\C[C@H]3[C@@H]([C@@H](C)/C=C\C=C/C(=O)OCCOCCOCCOC(=O)CC45CC6CC(CC(C6)C4)C5)CC[C@]3(C)C[C@H]12
DC50 [22]: 1000 nM
